Data published in ChEMBL document CHEMBL4376865, “Discovery and Characterization of 1H-1,2,3-Triazole Derivatives as Novel Prostanoid EP4 Receptor Antagonists for Cancer Immunotherapy” (J Med Chem, 2020).

Key:
CYP2D6 = CYP2D6 (Homo sapiens, UniProt P10635); assay: Inhibition of CYP2D6 in human liver microsomes at 20 uM using dextromethorphan as substrate incubated for 60 mins by HPLC analysis relative to control; type: ADME; settings: probe dextromethorphan
[1] = target: Prostaglandin E2 receptor EP4 subtype (Mus musculus, UniProt P32240); assay: Antagonist activity at mouse EP4 expressed in CHO cells coexpressing G16-alpha assessed as intracellular calcium flux preincubated for 15 mins followed by addition of PGE2 by calcium flux assay; type: functional, cell-based
CYP1A2 = target: T1, CYP1A2 (Homo sapiens, UniProt P05177); assay: Inhibition of CYP1A2 in human liver microsomes at 20 uM using phenacetin as substrate incubated for 30 mins by HPLC analysis relative to control; type: ADME; settings: probe phenacetin
T1 sequence (P05177 whole entry): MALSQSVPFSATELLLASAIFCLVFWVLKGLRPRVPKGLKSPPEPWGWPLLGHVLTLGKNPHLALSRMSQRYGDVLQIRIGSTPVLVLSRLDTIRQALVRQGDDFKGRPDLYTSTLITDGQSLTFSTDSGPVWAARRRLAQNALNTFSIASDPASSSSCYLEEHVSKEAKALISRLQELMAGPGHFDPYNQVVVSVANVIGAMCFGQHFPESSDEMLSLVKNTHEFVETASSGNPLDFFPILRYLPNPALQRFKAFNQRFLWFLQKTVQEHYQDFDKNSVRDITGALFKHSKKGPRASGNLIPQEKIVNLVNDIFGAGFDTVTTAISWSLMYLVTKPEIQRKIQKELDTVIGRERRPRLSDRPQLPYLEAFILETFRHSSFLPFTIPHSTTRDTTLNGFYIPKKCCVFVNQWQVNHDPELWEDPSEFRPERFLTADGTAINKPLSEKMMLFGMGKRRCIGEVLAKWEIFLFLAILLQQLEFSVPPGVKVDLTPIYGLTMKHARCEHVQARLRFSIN

[2] = Volume of distribution at steady state in BALB/c mouse at 1 mg/kg, iv measured upto 24 hrs by LC-MS/MS analysis; settings: in vivo
[3] = target: Prostaglandin E2 receptor EP4 subtype (Homo sapiens, UniProt P35408); assay: Inhibition of human EP4 transfected in human HEK293 cells assessed as reduction in PGE2-induced cAMP level incubated for 15 mins followed by PGE2 stimulation and measured every 2 mins for 30 mins by GloSensor cAMP Assay
in vivo [4] = settings: BALB/c, mouse, iv, 1 mg/kg
in vivo [5] = settings: BALB/c, mouse, po, 5 mg/kg
Description: Oral bioavailability in BALB/c mouse at 5 mg/kg measured upto 24 hrs by LC-MS/MS analysis

in vitro = settings: CD1, mouse, liver microsomes

Prostaglandin E2 receptor EP4 subtype (Homo sapiens, UniProt P35408), sequence (P35408 whole entry): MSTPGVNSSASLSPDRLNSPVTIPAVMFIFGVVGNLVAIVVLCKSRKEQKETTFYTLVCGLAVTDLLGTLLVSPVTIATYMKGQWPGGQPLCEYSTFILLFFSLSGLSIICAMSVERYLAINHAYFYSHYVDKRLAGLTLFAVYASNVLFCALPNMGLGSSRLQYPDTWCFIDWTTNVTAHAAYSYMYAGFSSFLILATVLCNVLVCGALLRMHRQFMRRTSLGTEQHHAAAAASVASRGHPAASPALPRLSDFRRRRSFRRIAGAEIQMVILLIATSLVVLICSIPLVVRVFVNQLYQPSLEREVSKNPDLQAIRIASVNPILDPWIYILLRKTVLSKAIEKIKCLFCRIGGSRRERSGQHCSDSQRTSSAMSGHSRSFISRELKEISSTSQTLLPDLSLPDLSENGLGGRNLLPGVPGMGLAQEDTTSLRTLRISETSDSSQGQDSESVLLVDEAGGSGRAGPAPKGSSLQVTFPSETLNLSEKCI
Prostaglandin E2 receptor EP4 subtype (Mus musculus, UniProt P32240), sequence (P32240 whole entry): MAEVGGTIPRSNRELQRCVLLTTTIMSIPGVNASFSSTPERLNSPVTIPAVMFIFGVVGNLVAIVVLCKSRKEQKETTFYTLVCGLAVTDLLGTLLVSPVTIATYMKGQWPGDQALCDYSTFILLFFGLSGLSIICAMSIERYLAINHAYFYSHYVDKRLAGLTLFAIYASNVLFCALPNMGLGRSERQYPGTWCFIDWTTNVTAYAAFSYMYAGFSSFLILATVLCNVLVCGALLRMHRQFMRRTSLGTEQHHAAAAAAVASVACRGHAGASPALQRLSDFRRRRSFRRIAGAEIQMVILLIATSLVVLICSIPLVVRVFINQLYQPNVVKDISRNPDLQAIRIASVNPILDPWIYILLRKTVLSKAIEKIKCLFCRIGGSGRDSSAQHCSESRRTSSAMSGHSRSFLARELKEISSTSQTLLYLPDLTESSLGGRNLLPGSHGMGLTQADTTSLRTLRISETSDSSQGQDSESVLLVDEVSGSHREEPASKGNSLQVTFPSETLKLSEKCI
CYP2D6, sequence (P10635 whole entry): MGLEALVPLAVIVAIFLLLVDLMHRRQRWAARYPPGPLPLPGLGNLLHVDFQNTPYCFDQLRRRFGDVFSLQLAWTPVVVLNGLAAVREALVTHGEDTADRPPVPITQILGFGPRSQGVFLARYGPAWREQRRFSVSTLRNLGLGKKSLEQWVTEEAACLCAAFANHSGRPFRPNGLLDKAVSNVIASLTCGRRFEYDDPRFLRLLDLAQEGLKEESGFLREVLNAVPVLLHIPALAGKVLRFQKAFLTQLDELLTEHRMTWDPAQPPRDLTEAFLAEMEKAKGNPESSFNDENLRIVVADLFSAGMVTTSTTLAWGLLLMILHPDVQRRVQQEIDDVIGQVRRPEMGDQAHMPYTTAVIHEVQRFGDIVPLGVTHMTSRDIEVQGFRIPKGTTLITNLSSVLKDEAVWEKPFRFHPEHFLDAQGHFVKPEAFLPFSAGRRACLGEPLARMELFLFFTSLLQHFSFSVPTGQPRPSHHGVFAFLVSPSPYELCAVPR

inhibition at 1 h, 20 µM (CYP2D6): 23%
IC50 [1]: 16.2 nM
inhibition at 0.5 h, 20 µM (CYP1A2): 27%
Vd at 24 h [2]: 4.4 L/kg
IC50 [3]: 18.7 nM
Kb [3]: 5.62 nM
Cmax at 24 h (in vivo [4]): 1200 ng/mL
bioavailability at 24 h (in vivo [5]): 48%
microsomal CLint at 1 h, 10 µM (in vitro): < 9.6 µL/min/mg
SMILES: C/C=C/c1nnn(Cc2ccc(C(F)(F)F)cc2)c1C(=O)N[C@@H](C)c1ccc(C(=O)O)cc1
